Test results taken from PubChem BioAssay AID2060906 (Molecular Pharmacology Branch, DTP, NCI, 2025).
pIC50: −log10 of the molar value. Each block holds one molecule with its values, some of them ahead of it.

Test system: 485176-168-R4-J1-PDC complex spheroid growth
Assay: Anticancer human tumor 485176-168-R4-J1-PDC patient-derived pancreatic adenocarcinoma cell line growth inhibition [RAS]
Conditions: for pIC50: curve of first compound; for viability, T/C: stronger effect = lower value
Procedure, shortened: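 Multi-cell-type spheroids: tumor cells plus HUVEC endothelial cells and mesenchymal stem cells. RAS-pathway inhibitors were combined with targeted agents, each dosed in half-log steps down from clinical Cmax, or from 10 microM when Cmax was unknown.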

[1] = second compound 0.00316 µM, first compound 0.0316 µM
[2] = second compound 0.00316 µM, first compound 0.1 µM
[3] = second compound 0.00316 µM, first compound 0.316 µM
[4] = second compound 0.00316 µM, first compound 1 µM
[5] = second compound 0.00316 µM, first compound 3.16 µM
[6] = second compound 0.00316 µM, first compound 10 µM
[7] = second compound 0.01 µM, first compound 0.0316 µM
[8] = second compound 0.01 µM, first compound 0.1 µM
[9] = second compound 0.01 µM, first compound 0.316 µM
[10] = second compound 0.01 µM, first compound 1 µM
[11] = second compound 0.01 µM, first compound 3.16 µM
[12] = second compound 0.01 µM, first compound 10 µM
[13] = second compound 0.0316 µM, first compound 0.0316 µM
[14] = second compound 0.0316 µM, first compound 0.1 µM
[15] = second compound 0.0316 µM, first compound 0.316 µM
[16] = second compound 0.0316 µM, first compound 1 µM
[17] = second compound 0.0316 µM, first compound 3.16 µM
[18] = second compound 0.0316 µM, first compound 10 µM
[19] = second compound 0.1 µM, first compound 0.0316 µM
[20] = second compound 0.1 µM, first compound 0.1 µM
[21] = second compound 0.1 µM, first compound 0.316 µM
[22] = second compound 0.1 µM, first compound 1 µM
[23] = second compound 0.1 µM, first compound 3.16 µM
[24] = second compound 0.1 µM, first compound 10 µM
[25] = second compound 0.316 µM, first compound 0.0316 µM
[26] = second compound 0.316 µM, first compound 0.1 µM
[27] = second compound 0.316 µM, first compound 0.316 µM
[28] = second compound 0.316 µM, first compound 1 µM
[29] = second compound 0.316 µM, first compound 3.16 µM
[30] = second compound 0.316 µM, first compound 10 µM
[31] = second compound 1 µM, first compound 0.0316 µM
[32] = second compound 1 µM, first compound 0.1 µM
[33] = second compound 1 µM, first compound 0.316 µM
[34] = second compound 1 µM, first compound 1 µM
[35] = second compound 1 µM, first compound 3.16 µM
[36] = second compound 1 µM, first compound 10 µM
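Also: spheroids exposed to compounds for seven days before readout.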
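For viability, T/C in this document: luminescence viability expressed relative to DMSO vehicle wells set as 100%.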

pIC50 (second compound 0.00316 µM): > 7.50 | pIC50 (second compound 0.01 µM): > 7.50 | pIC50 (second compound 0.0316 µM): > 7.50 | pIC50 (second compound 0.1 µM): > 7.50 | pIC50 (second compound 0.316 µM): > 7.50 | pIC50 (second compound 1 µM): > 7.50
SMILES: CC(=O)OC12COC1CC(O)C1(C)C(=O)C(O)C3=C(C)C(OC(=O)C(O)C(NC(=O)OC(C)(C)C)c4ccccc4)CC(O)(C(OC(=O)c4ccccc4)C21)C3(C)C (stereo not given) + C=CC(=O)N1CCN(c2nc(OCC3CCCN3C)nc3c(F)c(-c4nc(N)cc(C)c4C(F)(F)F)c(Cl)cc23)C(C)C1
viability, T/C [1]: 13.2% | viability, T/C [2]: 9.9% | viability, T/C [3]: 13.1% | viability, T/C [4]: 11.3% | viability, T/C [5]: 15.8% | viability, T/C [6]: 18.9% | viability, T/C [7]: 17% | viability, T/C [8]: 12.3% | viability, T/C [9]: 11.4% | viability, T/C [10]: 11.7% | viability, T/C [11]: 13.7% | viability, T/C [12]: 16.3% | viability, T/C [13]: 15.2% | viability, T/C [14]: 13.6% | viability, T/C [15]: 12% | viability, T/C [16]: 15.1% | viability, T/C [17]: 13.3% | viability, T/C [18]: 17.9% | viability, T/C [19]: 13.3% | viability, T/C [20]: 13.8% | viability, T/C [21]: 10.5% | viability, T/C [22]: 11.3% | viability, T/C [23]: 16.7% | viability, T/C [24]: 17.9% | viability, T/C [25]: 18.4% | viability, T/C [26]: 13.3% | viability, T/C [27]: 11.8% | viability, T/C [28]: 9.75% | viability, T/C [29]: 15.5% | viability, T/C [30]: 19.4% | viability, T/C [31]: 12.6% | viability, T/C [32]: 9.69% | viability, T/C [33]: 9.77% | viability, T/C [34]: 9.87% | viability, T/C [35]: 15.3% | viability, T/C [36]: 18.2%

pIC50 (second compound 0.00316 µM): 5.81 | pIC50 (second compound 0.01 µM): 5.84 | pIC50 (second compound 0.0316 µM): 5.84 | pIC50 (second compound 0.1 µM): 5.77 | pIC50 (second compound 0.316 µM): 5.82 | pIC50 (second compound 1 µM): 5.84
SMILES: CCC(CC)c1cc(NC2CCC(N)C2)n2nccc2n1 (stereo not given) + C=CC(=O)N1CCN(c2nc(OCC3CCCN3C)nc3c(F)c(-c4nc(N)cc(C)c4C(F)(F)F)c(Cl)cc23)C(C)C1
viability, T/C [1]: 103% | viability, T/C [2]: 101% | viability, T/C [3]: 102% | viability, T/C [4]: 78.5% | viability, T/C [5]: 3.09% | viability, T/C [6]: 0.53% | viability, T/C [7]: 111% | viability, T/C [8]: 98.3% | viability, T/C [9]: 77.1% | viability, T/C [10]: 72.9% | viability, T/C [11]: 3.14% | viability, T/C [12]: 0.53% | viability, T/C [13]: 101% | viability, T/C [14]: 103% | viability, T/C [15]: 103% | viability, T/C [16]: 72.9% | viability, T/C [17]: 2.99% | viability, T/C [18]: 0.57% | viability, T/C [19]: 97.7% | viability, T/C [20]: 104% | viability, T/C [21]: 93.3% | viability, T/C [22]: 88.8% | viability, T/C [23]: 3.12% | viability, T/C [24]: 0.5% | viability, T/C [25]: 87.8% | viability, T/C [26]: 93.5% | viability, T/C [27]: 95.3% | viability, T/C [28]: 76.2% | viability, T/C [29]: 3.3% | viability, T/C [30]: 0.53% | viability, T/C [31]: 94.8% | viability, T/C [32]: 110% | viability, T/C [33]: 89.6% | viability, T/C [34]: 73.3% | viability, T/C [35]: 2.65% | viability, T/C [36]: 0.64%

pIC50 (second compound 0.00316 µM): < 5.00 | pIC50 (second compound 0.01 µM): < 5.00 | pIC50 (second compound 0.0316 µM): < 5.00 | pIC50 (second compound 0.1 µM): < 5.00 | pIC50 (second compound 0.316 µM): < 5.00 | pIC50 (second compound 1 µM): < 5.00
SMILES: Cc1nc(N2CCC3(CC2)COC(C)C3N)c(CO)nc1Sc1ccnc(N)c1Cl (stereo not given) + C=CC(=O)N1CCN(c2nc(OCC3CCCN3C)nc3c(F)c(-c4nc(N)cc(C)c4C(F)(F)F)c(Cl)cc23)C(C)C1
viability, T/C [1]: 95.1% | viability, T/C [2]: 91.5% | viability, T/C [3]: 77.3% | viability, T/C [4]: 71.3% | viability, T/C [5]: 79.7% | viability, T/C [6]: 76% | viability, T/C [7]: 96.3% | viability, T/C [8]: 76.5% | viability, T/C [9]: 78.7% | viability, T/C [10]: 74.2% | viability, T/C [11]: 75.3% | viability, T/C [12]: 90.6% | viability, T/C [13]: 94% | viability, T/C [14]: 91.5% | viability, T/C [15]: 87.2% | viability, T/C [16]: 71.8% | viability, T/C [17]: 66.6% | viability, T/C [18]: 71.7% | viability, T/C [19]: 91.1% | viability, T/C [20]: 92.8% | viability, T/C [21]: 82.5% | viability, T/C [22]: 65.1% | viability, T/C [23]: 77.6% | viability, T/C [24]: 74.6% | viability, T/C [25]: 101% | viability, T/C [26]: 99.8% | viability, T/C [27]: 81.8% | viability, T/C [28]: 83.6% | viability, T/C [29]: 74.2% | viability, T/C [30]: 71% | viability, T/C [31]: 103% | viability, T/C [32]: 91% | viability, T/C [33]: 80.4% | viability, T/C [34]: 73.2% | viability, T/C [35]: 81.5% | viability, T/C [36]: 76.5%

pIC50 (second compound 0.00316 µM): < 5.00 | pIC50 (second compound 0.01 µM): < 5.00 | pIC50 (second compound 0.0316 µM): < 5.00 | pIC50 (second compound 0.1 µM): < 5.00 | pIC50 (second compound 0.316 µM): < 5.00 | pIC50 (second compound 1 µM): < 5.00
SMILES: NC1c2ccccc2OC12CCN(c1cnc3c(N4CCCc5ncccc54)n[nH]c3n1)CC2 (stereo not given) + C=CC(=O)N1CCN(c2nc(OCC3CCCN3C)nc3c(F)c(-c4nc(N)cc(C)c4C(F)(F)F)c(Cl)cc23)C(C)C1
viability, T/C [1]: 81.4% | viability, T/C [2]: 77.9% | viability, T/C [3]: 71.7% | viability, T/C [4]: 80.1% | viability, T/C [5]: 77.2% | viability, T/C [6]: 55.8% | viability, T/C [7]: 84.1% | viability, T/C [8]: 75.3% | viability, T/C [9]: 87.9% | viability, T/C [10]: 70% | viability, T/C [11]: 79.1% | viability, T/C [12]: 62.9% | viability, T/C [13]: 82.9% | viability, T/C [14]: 66.2% | viability, T/C [15]: 76.7% | viability, T/C [16]: 85.3% | viability, T/C [17]: 72.9% | viability, T/C [18]: 59.1% | viability, T/C [19]: 91.2% | viability, T/C [20]: 86.5% | viability, T/C [21]: 71% | viability, T/C [22]: 72.6% | viability, T/C [23]: 84% | viability, T/C [24]: 81.7% | viability, T/C [25]: 82.7% | viability, T/C [26]: 91.5% | viability, T/C [27]: 82.5% | viability, T/C [28]: 91.5% | viability, T/C [29]: 80.2% | viability, T/C [30]: 61% | viability, T/C [31]: 91.5% | viability, T/C [32]: 68.8% | viability, T/C [33]: 69.5% | viability, T/C [34]: 72.1% | viability, T/C [35]: 74% | viability, T/C [36]: 66.2%

pIC50 (second compound 0.00316 µM): 7.82 | pIC50 (second compound 0.01 µM): 7.77 | pIC50 (second compound 0.0316 µM): 7.76 | pIC50 (second compound 0.1 µM): 7.75 | pIC50 (second compound 0.316 µM): 7.86 | pIC50 (second compound 1 µM): 7.76
SMILES: Nc1ccn(C2OC(CO)C(O)C2(F)F)c(=O)n1 (stereo not given) + C=CC(=O)N1CCN(c2nc(OCC3CCCN3C)nc3c(F)c(-c4nc(N)cc(C)c4C(F)(F)F)c(Cl)cc23)C(C)C1
viability, T/C (second compound 0.00316 µM, first compound 0.00316 µM): 89.7% | viability, T/C (second compound 0.00316 µM, first compound 0.01 µM): 70.5% | viability, T/C [1]: 12.2% | viability, T/C [2]: 7.74% | viability, T/C [3]: 7.62% | viability, T/C [4]: 8.54% | viability, T/C (second compound 0.01 µM, first compound 0.00316 µM): 101% | viability, T/C (second compound 0.01 µM, first compound 0.01 µM): 81.4% | viability, T/C [7]: 11.6% | viability, T/C [8]: 8.54% | viability, T/C [9]: 7.95% | viability, T/C [10]: 11.2% | viability, T/C (second compound 0.0316 µM, first compound 0.00316 µM): 84.2% | viability, T/C (second compound 0.0316 µM, first compound 0.01 µM): 86% | viability, T/C [13]: 13% | viability, T/C [14]: 6.18% | viability, T/C [15]: 9.67% | viability, T/C [16]: 8.77% | viability, T/C (second compound 0.1 µM, first compound 0.00316 µM): 96.1% | viability, T/C (second compound 0.1 µM, first compound 0.01 µM): 86.2% | viability, T/C [19]: 12.4% | viability, T/C [20]: 9.42% | viability, T/C [21]: 8.72% | viability, T/C [22]: 8.42% | viability, T/C (second compound 0.316 µM, first compound 0.00316 µM): 98.1% | viability, T/C (second compound 0.316 µM, first compound 0.01 µM): 63.7% | viability, T/C [25]: 13.7% | viability, T/C [26]: 7.48% | viability, T/C [27]: 6.75% | viability, T/C [28]: 9.71% | viability, T/C (second compound 1 µM, first compound 0.00316 µM): 103% | viability, T/C (second compound 1 µM, first compound 0.01 µM): 85.2% | viability, T/C [31]: 13% | viability, T/C [32]: 8.41% | viability, T/C [33]: 9.99% | viability, T/C [34]: 10.3%
